Some test systems named below: NCI-H226; A549; SK-OV-3; SK-MEL-2; U-251; SW-620; 786-0; TK-10; NCI-H460; MOLT-4; M14; HCT-15; OVCAR-3; CCRF-CEM; UACC-62; RPMI-8226; SNB-75; SK-MEL-5; HT-29; UACC-257.
Holding throughout (assay): DTP human tumour cell line panel, 48 h

Experimental findings from ChEMBL document CHEMBL1201862, “PubChem BioAssay data set” (2004) are described below.

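Each compound was tested at five concentrations against cells in 96-well plates for 48 hours. GI50 is the concentration that inhibits growth by half.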 The source made the active and inactive calls. No stated cut-off is given here; in the data, active = GI50 up to about 1.1 µM and inactive = higher.

For the compound `CC1(O)C=CC(=O)C=C1`, the GI50 with NCI-H226 was > 100 µM (inactive); with A549, > 76.4 µM (inactive); in the experiment on SK-OV-3 it was > 100 µM (inactive); in the experiment with SK-MEL-2, 24.7 µM (inactive); with U-251, 21.9 µM (inactive); in the experiment with SW-620 it was 59.2 µM (inactive). Moreover, the GI50 with 786-0 was 20.7 µM (inactive); in the experiment on TK-10, 44.1 µM (inactive); in the experiment on NCI-H460 it was 20.3 µM (inactive); in the experiment on MOLT-4, 19.2 µM (inactive); in the experiment on M14, 20.1 µM (inactive); with HCT-15, 16 µM. Further, the GI50 was 24.2 µM (inactive) with OVCAR-3; 22.2 µM (inactive) in the experiment on CCRF-CEM; 18.5 µM (inactive) in the experiment with UACC-62; 30.1 µM (inactive) with RPMI-8226; > 56.1 µM (inactive) with SNB-75; > 55 µM (inactive) with SK-MEL-5. Moreover, the GI50 in the experiment with HT-29 is 38.4 µM (inactive); in the experiment on UACC-257, 17.7 µM (inactive).

As for `COC(CC1(/C=C/O[Si](C(C)C)(C(C)C)C(C)C)C(=O)N(COCC[Si](C)(C)C)c2ccccc21)OC` (centres undefined), the GI50 is > 100 µM (inactive) in the experiment on NCI-H226; 36.3 µM (inactive) in the experiment with A549; 20.8 µM (inactive) in the experiment on SK-OV-3; 13.3 µM (inactive) in the experiment on SK-MEL-2; 31.8 µM (inactive) in the experiment on U-251; 37.2 µM (inactive) in the experiment with SW-620. Further, the GI50 with 786-0 was 31 µM (inactive); in the experiment on TK-10 it was 74.8 µM (inactive); in the experiment with NCI-H460, 23.1 µM (inactive); in the experiment with MOLT-4 it was 22.1 µM (inactive); in the experiment on M14, 27.2 µM (inactive); in the experiment on HCT-15, 36.6 µM. For the same compound, the GI50 in the experiment with OVCAR-3 was 13.1 µM (inactive); in the experiment on CCRF-CEM, 13.4 µM (inactive); in the experiment on UACC-62, 18.8 µM (inactive); in the experiment with RPMI-8226, > 100 µM (inactive); in the experiment with SNB-75 it was 81.8 µM (inactive); with SK-MEL-5 it was 23.1 µM (inactive). Moreover, the GI50 is 96.4 µM (inactive) in the experiment with HT-29 and 25.5 µM (inactive) in the experiment with UACC-257.

Regarding `Cc1cc(C)c(S(=O)(=O)N(CCCCCCN)OCCCN)c(C)c1`, the GI50 with NCI-H226 is 19.6 µM (inactive); in the experiment with A549, 70 µM (inactive); with SK-OV-3 it was 18.4 µM (inactive); in the experiment with SK-MEL-2, 20.2 µM (inactive); in the experiment with U-251, 16.2 µM (inactive); in the experiment on SW-620 it was 17.9 µM (inactive). Also, the GI50 with 786-0 was 16 µM (inactive); in the experiment with TK-10, 15.4 µM (inactive); in the experiment on NCI-H460 it was 15.6 µM (inactive); in the experiment on MOLT-4, 15.3 µM (inactive); in the experiment with M14, 20.9 µM (inactive); in the experiment on HCT-15, 17.7 µM. Further, the GI50 with OVCAR-3 is 19.9 µM (inactive); in the experiment on CCRF-CEM, 16.1 µM (inactive); with UACC-62, 19.5 µM (inactive); in the experiment with RPMI-8226 it was 31.6 µM (inactive); with SNB-75 it was 10.3 µM (inactive); in the experiment on SK-MEL-5 it was 19.2 µM (inactive). In addition, the GI50 was 15.1 µM (inactive) in the experiment with HT-29 and 15.8 µM (inactive) with UACC-257.

As for `CC1=NN(C(=O)c2ccccc2O)C(=O)/C1=C/c1ccc(O)cc1`, the GI50 in the experiment on NCI-H226 is 0.475 µM (active); in the experiment on A549 it was 0.291 µM (active); in the experiment on SK-OV-3 it was 0.26 µM (active); in the experiment with SK-MEL-2, 2.13 µM (inactive); in the experiment on U-251 it was 0.205 µM (active); in the experiment on SW-620, 2.73 µM (inactive). Further, the GI50 in the experiment on 786-0 was 0.323 µM (active); in the experiment on TK-10, 13 µM (inactive); in the experiment on NCI-H460, 0.255 µM (active); in the experiment on MOLT-4 it was 0.711 µM (active); in the experiment with M14 it was 0.351 µM (active); in the experiment with HCT-15, 0.485 µM. Moreover, the GI50 with OVCAR-3 is 0.278 µM (active); with CCRF-CEM it was 1.47 µM (inactive); with UACC-62, 0.34 µM (active); in the experiment with RPMI-8226 it was 0.312 µM (active); in the experiment with SNB-75, 0.23 µM (active); in the experiment on SK-MEL-5, 0.301 µM (active). Besides, the GI50 in the experiment on HT-29 was 26.9 µM (inactive); in the experiment with UACC-257, 0.658 µM (active).

For `N#C/C(=C/c1ccco1)C(=O)c1ccccc1`, the GI50 with NCI-H226, in the experiment on A549, with SK-OV-3, with SK-MEL-2, in the experiment with U-251 and in the experiment on SW-620 was > 100 µM (inactive) in each case. For the same compound, the GI50 was > 100 µM (inactive) in the experiment on 786-0; > 100 µM (inactive) with TK-10; > 100 µM (inactive) in the experiment on NCI-H460; > 100 µM (inactive) with MOLT-4; > 100 µM (inactive) with M14; over 100 µM with HCT-15. The GI50 with CCRF-CEM, in the experiment with UACC-62, with RPMI-8226, in the experiment on SNB-75, with SK-MEL-5 and with HT-29 was > 100 µM (inactive) each time. Also, the GI50 with UACC-257 is > 100 µM (inactive).

Take `C[C@]12CCC(=O)C=C1CC[C@@H]1[C@@H]2[C@@H](O)C[C@@]2(C)[C@H]1CC[C@]2(O)C(=O)COC(=O)C1CCCC1`: the GI50 with NCI-H226 is > 100 µM (inactive); in the experiment on A549, 58.2 µM (inactive); with SK-OV-3, > 100 µM (inactive); in the experiment on SK-MEL-2, > 100 µM (inactive); in the experiment with U-251, > 100 µM (inactive); in the experiment with SW-620, > 100 µM (inactive). Further, the GI50 in the experiment with 786-0 is > 100 µM (inactive); in the experiment on TK-10, > 100 µM (inactive); in the experiment on NCI-H460 it was 87.3 µM (inactive); with M14, > 100 µM (inactive); in the experiment with HCT-15, over 100 µM; in the experiment on OVCAR-3 it was > 100 µM (inactive). Further, the GI50 in the experiment with CCRF-CEM was 7.73 µM (inactive); in the experiment on UACC-62, > 100 µM (inactive); in the experiment with RPMI-8226, 1.63 µM (inactive); with SNB-75 it was > 100 µM (inactive); in the experiment with SK-MEL-5, > 100 µM (inactive); with HT-29 it was 67.8 µM (inactive). The GI50 in the experiment with UACC-257 was > 100 µM (inactive).

Turning to `COc1ccc(/C=C(\C2=NC(=O)CS2)c2nc3ccccc3[nH]2)cc1`, the GI50 with NCI-H226 is 8.95 µM (inactive); with A549 it was > 100 µM (inactive); in the experiment with SK-OV-3 it was 15.8 µM (inactive); in the experiment on SK-MEL-2, 24 µM (inactive); in the experiment on U-251, 42.3 µM (inactive); in the experiment with SW-620, > 100 µM (inactive). Besides, the GI50 in the experiment with TK-10 was > 100 µM (inactive); in the experiment on NCI-H460, 38.9 µM (inactive); with MOLT-4, 54.8 µM (inactive); with M14, 93.1 µM (inactive); in the experiment with HCT-15 it was 83.8 µM; in the experiment on OVCAR-3, 22 µM (inactive). In addition, the GI50 with CCRF-CEM is 39.4 µM (inactive); in the experiment on UACC-62, > 100 µM (inactive); in the experiment on RPMI-8226 it was > 100 µM (inactive); in the experiment on SNB-75, 28.1 µM (inactive); in the experiment with SK-MEL-5, 37.6 µM (inactive); in the experiment on HT-29, > 100 µM (inactive). Moreover, the GI50 with UACC-257 was 78 µM (inactive).

Take `CN1c2ccccc2N(C(=O)c2ccc([N+](=O)[O-])cc2)C(CC(=O)O)c2cccn21` (centres undefined): the GI50 in the experiment on NCI-H226, in the experiment on A549, with SK-OV-3, in the experiment with SK-MEL-2, in the experiment with SW-620 and with 786-0 was > 100 µM (inactive) throughout. Moreover, the GI50 was > 100 µM (inactive) in the experiment with TK-10; > 100 µM (inactive) in the experiment on NCI-H460; > 100 µM (inactive) in the experiment on MOLT-4; > 100 µM (inactive) in the experiment on M14; over 100 µM in the experiment with HCT-15; > 100 µM (inactive) in the experiment with OVCAR-3. In addition, the GI50 with CCRF-CEM, with UACC-62, in the experiment with RPMI-8226, in the experiment on SNB-75, in the experiment on SK-MEL-5 and in the experiment with HT-29 was > 100 µM (inactive) in each case. In addition, the GI50 in the experiment on UACC-257 was > 100 µM (inactive).

As for `C/C(=N/NC(=O)c1ccccc1S(N)(=O)=O)C(CN1CCCCC1)C(C1=C(O)C2C=CC=CC2OC1=O)c1ccccc1` (centres undefined), the GI50 with NCI-H226 was 90.2 µM (inactive); in the experiment with A549 it was 91.2 µM (inactive); in the experiment with SK-OV-3, > 100 µM (inactive); in the experiment with SK-MEL-2, 59.2 µM (inactive); with U-251 it was 89.1 µM (inactive); in the experiment on SW-620, 31.8 µM (inactive). In addition, the GI50 in the experiment on 786-0 was > 100 µM (inactive); in the experiment with TK-10, > 100 µM (inactive); in the experiment on NCI-H460 it was 77.4 µM (inactive); with M14, 78.3 µM (inactive); with HCT-15, 49.9 µM; with OVCAR-3, 41.6 µM (inactive). Besides, the GI50 in the experiment with CCRF-CEM is 21.9 µM (inactive); in the experiment on UACC-62 it was 82.6 µM (inactive); in the experiment on RPMI-8226 it was 25.5 µM (inactive); with SNB-75, > 100 µM (inactive); with SK-MEL-5, 56.9 µM (inactive); with HT-29 it was 83.9 µM (inactive). The GI50 with UACC-257 was 95.7 µM (inactive).

Regarding `COC(=O)[C@]1(C)CCCn2c(=O)n(-c3ccccc3)c(=O)n21`, the GI50 in the experiment with NCI-H226 is 68.1 µM (inactive); in the experiment on A549, > 100 µM (inactive); in the experiment on SK-OV-3, > 100 µM (inactive); in the experiment with SK-MEL-2, > 100 µM (inactive); with U-251, > 100 µM (inactive); in the experiment on SW-620 it was > 100 µM (inactive). Moreover, the GI50 is > 100 µM (inactive) in the experiment with 786-0; > 100 µM (inactive) in the experiment on TK-10; > 100 µM (inactive) in the experiment on MOLT-4; > 100 µM (inactive) with M14; over 100 µM with HCT-15; > 100 µM (inactive) with OVCAR-3. Also, the GI50 with CCRF-CEM, in the experiment with UACC-62, in the experiment with RPMI-8226, in the experiment with SNB-75, in the experiment on SK-MEL-5 and in the experiment with HT-29 was > 100 µM (inactive) in each case. In addition, in the experiment on UACC-257, the GI50 is > 100 µM (inactive).

As usually defined, the GI50 is the concentration that inhibits growth by half.
